For assay [1], the target named is T1, Sodium-dependent dopamine transporter (Rattus norvegicus, UniProt P23977). Kind of assay: Inhibition of [3H]- Mazindol binding to dopamine transporter of rat striatal membrane.
Assay [2] has as its target T1, Sodium-dependent dopamine transporter. Kind of assay: Inhibition of [3H]DA binding to dopamine transporter of rat brain synaptosomes. The format is subcellular.
Assay [3] has as its target Norepinephrine transporter (Rattus norvegicus, UniProt Q9WTR4). The experiment in a line: Inhibition of [3H]NE binding to norepinephrine transporter of rat brain synaptosomes. It counts as subcellular.
The target of assay [4] is Sodium-dependent serotonin transporter (Rattus norvegicus, UniProt P31652). The experiment in a line: Inhibition of [3H]-5-HT binding to serotonin transporter of rat brain synaptosomes. It counts as subcellular.
Sequence of Sodium-dependent serotonin transporter (P31652 whole entry): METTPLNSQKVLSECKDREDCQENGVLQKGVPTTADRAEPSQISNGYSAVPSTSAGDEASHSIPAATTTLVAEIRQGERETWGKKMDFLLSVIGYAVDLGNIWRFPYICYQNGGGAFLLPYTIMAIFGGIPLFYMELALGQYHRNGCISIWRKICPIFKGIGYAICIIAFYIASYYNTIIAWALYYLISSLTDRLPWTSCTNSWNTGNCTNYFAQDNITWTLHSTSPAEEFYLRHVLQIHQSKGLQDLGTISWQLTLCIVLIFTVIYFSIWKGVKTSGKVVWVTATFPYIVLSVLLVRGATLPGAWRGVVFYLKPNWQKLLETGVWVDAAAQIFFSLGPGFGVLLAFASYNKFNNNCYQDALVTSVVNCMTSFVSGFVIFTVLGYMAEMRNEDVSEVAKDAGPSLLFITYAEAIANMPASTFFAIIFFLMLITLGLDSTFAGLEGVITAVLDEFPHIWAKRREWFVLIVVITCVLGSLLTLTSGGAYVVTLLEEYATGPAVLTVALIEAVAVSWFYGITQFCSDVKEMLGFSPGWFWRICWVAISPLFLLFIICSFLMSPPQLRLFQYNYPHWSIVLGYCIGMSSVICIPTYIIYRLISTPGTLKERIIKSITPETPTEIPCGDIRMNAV

T1 sequence (P23977 whole entry): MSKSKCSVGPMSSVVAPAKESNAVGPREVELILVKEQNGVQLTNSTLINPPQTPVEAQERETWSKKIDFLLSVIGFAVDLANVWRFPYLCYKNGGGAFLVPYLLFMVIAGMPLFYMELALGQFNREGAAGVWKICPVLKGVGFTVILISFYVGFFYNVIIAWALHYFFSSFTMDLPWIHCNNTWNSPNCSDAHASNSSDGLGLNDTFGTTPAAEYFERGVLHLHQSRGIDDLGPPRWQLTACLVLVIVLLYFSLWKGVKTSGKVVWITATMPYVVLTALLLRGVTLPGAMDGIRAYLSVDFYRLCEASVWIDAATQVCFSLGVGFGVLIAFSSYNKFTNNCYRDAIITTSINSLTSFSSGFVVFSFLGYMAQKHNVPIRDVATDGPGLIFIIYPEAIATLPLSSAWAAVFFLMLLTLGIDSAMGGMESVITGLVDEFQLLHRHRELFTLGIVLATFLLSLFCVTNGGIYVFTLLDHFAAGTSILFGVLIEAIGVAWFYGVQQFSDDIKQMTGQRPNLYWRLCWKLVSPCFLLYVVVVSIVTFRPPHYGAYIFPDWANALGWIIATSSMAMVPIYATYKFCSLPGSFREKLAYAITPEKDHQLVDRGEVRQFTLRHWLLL
Sequence of Norepinephrine transporter (Q9WTR4 whole entry): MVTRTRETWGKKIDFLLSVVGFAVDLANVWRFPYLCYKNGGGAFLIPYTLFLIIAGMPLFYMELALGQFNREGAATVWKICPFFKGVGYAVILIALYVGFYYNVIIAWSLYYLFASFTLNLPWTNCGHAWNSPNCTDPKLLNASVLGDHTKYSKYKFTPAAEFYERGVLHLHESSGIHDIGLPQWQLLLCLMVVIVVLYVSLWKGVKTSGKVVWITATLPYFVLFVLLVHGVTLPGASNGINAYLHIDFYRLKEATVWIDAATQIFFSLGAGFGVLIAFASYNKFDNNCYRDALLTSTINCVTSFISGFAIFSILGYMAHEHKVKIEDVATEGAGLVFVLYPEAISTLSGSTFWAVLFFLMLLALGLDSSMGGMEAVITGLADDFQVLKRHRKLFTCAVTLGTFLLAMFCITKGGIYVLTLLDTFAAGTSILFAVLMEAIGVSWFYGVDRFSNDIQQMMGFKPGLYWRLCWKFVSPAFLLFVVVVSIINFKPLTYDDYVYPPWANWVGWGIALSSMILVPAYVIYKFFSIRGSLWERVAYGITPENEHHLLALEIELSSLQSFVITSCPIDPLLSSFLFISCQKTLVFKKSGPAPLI

Take `CN1CCC(c2ccc(Cl)cc2)C(C(=O)OCCCc2ccccc2)C1` (single isomer, unassigned; (+)): the Ki – broadly, the equilibrium dissociation constant of an inhibitor or competing ligand from its target – turned out to be 1490 nM in assay [1], 1420 nM in assay [2], 72 nM in assay [3] and 2160 nM in assay [4].
The matching figures for `COC(=O)C1CN(C)CCC1c1ccc(Cl)cc1` (single isomer, unassigned; (+)): 248 nM, 228 nM, 90 nM and 5880 nM.
Take `CO/N=C1/CN2CC[C@@H](c3ccc(Cl)cc3)C1C2` (some centres undefined): the Ki is 232 nM in assay [3] and greater than 2000 nM in assay [4].
Regarding `Clc1ccc([C@@H]2CCN3C/C(=N\OCCCc4ccccc4)C2C3)cc1` (some centres undefined), the Ki in assay [1] stood at 53 nM; in assay [2] it was 41 nM; in assay [3] it was 483 nM; in assay [4] it was 292 nM.
The matching figures for `CN1CCC(c2ccc(Cl)cc2)C(C(=O)OCCC(c2ccccc2)c2ccccc2)C1` (single isomer, unassigned; (+)): 420 nM, 1160 nM, 3140 nM and 2590 nM.
For `CO/N=C1\CN2CC[C@@H](c3ccc(Cl)cc3)C1C2` (stereo in doubt; (-)-7), the figures for the Ki in assay [3] and in assay [4] were 652 nM and 2530 nM, respectively.
For the compound `CO/N=C1\CN2CC[C@H](c3ccc(Cl)cc3)C1C2` (stereo in doubt; (-)-6), the Ki in assay [3] stood at 305 nM; in assay [4], 503 nM.
Turning to `Clc1ccc([C@@H]2CCN3C/C(=N\OCc4ccccc4)C2C3)cc1` (some centres undefined), the Ki in assay [2] is 1860 nM; in assay [3], 1550 nM; in assay [4] it was 117 nM.
Consider `CO/N=C1\CN2CC[C@@H](c3ccc(Cl)cc3)C1C2` (single isomer, unassigned; (+)), for which the Ki was greater than 4000 nM in assay [3] and 1790 nM in assay [4].
For `CO/N=C1/CN2CC[C@H](c3ccc(Cl)cc3)C1C2` (some centres undefined) the same measures were 240 nM and 856 nM.
With `CO/N=C1\CN2CC[C@H](c3ccc(Cl)cc3)C1C2` (stereo in doubt; (+)-7), the results for the Ki in assay [3] and in assay [4] were 871 nM and 2640 nM, respectively.
As for `CN1CCC(c2ccc(Cl)cc2)C(C(=O)OCCCCCc2ccccc2)C1` (single isomer, unassigned; (+)), the Ki in assay [1] came out at 52 nM; in assay [2], 53 nM; in assay [3], 382 nM; in assay [4], 1790 nM.
The matching figures for `CC(C)(C)O/N=C1\CN2CC[C@@H](c3ccc(Cl)cc3)C1C2` (some centres undefined): 641 nM, 725 nM, 287 nM and 137 nM.

These data come from ChEMBL document CHEMBL1133251, “Synthesis and biological evaluation of 1-azabicyclo-[3.2.1]octanes: new dopamine transporter inhibitors” (Bioorg Med Chem Lett, 2000).
